Patent US9328374B2, “Selective culture medium and method for detecting carbapenem-resistant bacteria in a test sample” (Institut National de la Sante et de la Recherche Medicale …, priority 2011, dated 2016)
Where two headings read alike, the source gives them in different places.

Test system: K. pneumoniae
Assay: MIC of imipenem, ertapenem and meropenem
Format: cell-based, Klebsiella pneumoniae
Settings: Klebsiella pneumoniae, read-out: MIC

Compound: C[C@@H](O)[C@H]1C(=O)N2C(C(=O)O)=C(S[C@@H]3CN[C@H](C(=O)Nc4cccc(C(=O)O)c4)C3)[C@H](C)[C@H]12 [ETP, ertapenem]
- MIC (K. pneumoniae 1 OMA (NDM-1 + CTX-M-15 + OXA-1 + OXA-9)): > 32 µg/mL
- MIC (K. pneumoniae 2 OLA (NDM-1 + OXA-1)): 6 µg/mL
- MIC (K. pneumoniae 7 AFR (NDM-1 + OXA-1 + CTX-M-15 + CMY-6 + TEM-1)): > 32 µg/mL
- MIC (K. pneumoniae 7AFR, NDM-1 + TEM-1 + CTX-M-15 + CMY-6 + OXA-1): > 32 µg/mL
- MIC (K. pneumoniae 0227, SHV-1, non-carbapenemase producer): 0.008 µg/mL
- MIC (K. pneumoniae 588, KPC-2 + TEM-1 + SHV-11 + OXA-9): 32 µg/mL
- MIC (K. pneumoniae 1022, SHV-2a + SHV-28, non-carbapenemase producer): 0.016 µg/mL
- MIC (K. pneumoniae 1025 (CTX-M-14 + TEM-1 + SHV-11)): 0.016 µg/mL
- MIC (K. pneumoniae 1025, CTX-M-14 + TEM-1 + SHV-11, non-carbapenemase producer): 0.016 µg/mL
- MIC (K. pneumoniae 2303, KPC-2 + SHV-11): > 32 µg/mL
- MIC (K. pneumoniae 6642 GEN (NDM-1 + CTX-M-15 + OXA-1 + OXA-10)): 16 µg/mL
- MIC (K. pneumoniae 6642 GEN, NDM-1 + CTX-M-15 + OXA-1 + OXA-10): 16 µg/mL
- MIC (K. pneumoniae 6759 GEN (NDM-1 + CTX-M-15 + OXA-1 + OXA-9 + OXA-10 + CMY16)): > 32 µg/mL
- MIC (K. pneumoniae 6759 GEN, NDM-1 + CTX-M-15 + CMY-16 + OXA-1 + OXA-9 + OXA-10): > 32 µg/mL
- MIC (K. pneumoniae 7725 (SHV-1)): 0.006 µg/mL
- MIC (K. pneumoniae 7725, SHV-1, non-carbapenemase producer): 0.006 µg/mL
- MIC (K. pneumoniae 10112, CTX-M-15 + TEM-1 + SHV-11, non-carbapenemase producer): 0.016 µg/mL
- MIC (K. pneumoniae 0404020, VIM-1+ SHV-5): > 32 µg/mL
- MIC (K. pneumoniae 0404024, VIM-1): > 32 µg/mL
- MIC (K. pneumoniae 0511135, VIM-1+ SHV-12): > 32 µg/mL
- MIC (K. pneumoniae 648236 (SHV-2a)): 2 µg/mL
- MIC (K. pneumoniae 648236, SHV-2a, non-carbapenemase producer, porin deficiency): 2 µg/mL
- MIC (K. pneumoniae 0709121, IMP-1): 3 µg/mL
- MIC (K. pneumoniae 0709124, IMP-1 + TEM-15): 3 µg/mL
- MIC (K. pneumoniae 0709125, IMP-1 + TEM-1 + SHV-12): 4 µg/mL
- MIC (K. pneumoniae 0709127, IMP-1 + TEM-1): 4 µg/mL
- MIC (K. pneumoniae A28006, KPC-2 + TEM-1 + CTX-M-2 + SHV-11): 24 µg/mL
- MIC (K. pneumoniae A33504, KPC-2 + TEM-1 + SHV-11 + CTX-M-2 + OXA-9): > 32 µg/mL
- MIC (K. pneumoniae AEL, OXA-48 + CTX-M-15 + SHV-28 + OXA-1): 6 µg/mL
- MIC (K. pneumoniae ALE (CTX-M-15 + SHV-1)): > 32 µg/mL
- MIC (K. pneumoniae ALE, CTX-M-15 + SHV-1, non-carbapenemase producer, porin deficiency): > 32 µg/mL
- MIC (K. pneumoniae AMS (OXA-48 + TEM-1 + CTX-M-15 + OXA-1)): 2 µg/mL
- MIC (K. pneumoniae AMS, OXA-48 + TEM-1 + CTX-M-15 + OXA-1): 2 µg/mL
- MIC (K. pneumoniae BAJ (OXA-48 + TEM-1 + CTX-M-15 + SHV-28)): 1.5 µg/mL
- MIC (K. pneumoniae BAJ, OXA-48 + TEM-1 + CTX-M-15 + SHV-28): 1.5 µg/mL
- MIC (K. pneumoniae BED (CTX-M-15 + TEM-1 + SHV-1; Table 8: SHV-11)): > 32 µg/mL
- MIC (K. pneumoniae BED, CTX-M-15 + TEM-1 + SHV-11, non-carbapenemase producer, porin deficiency): > 32 µg/mL
- MIC (K. pneumoniae BEL (OXA-48)): 4 µg/mL
- MIC (K. pneumoniae BEL, OXA-48): 4 µg/mL
- MIC (K. pneumoniae BEN (OXA-48 + TEM-1 + CTX-M-15 + SHV-28)): 1 µg/mL
- MIC (K. pneumoniae BEN, OXA-48 + TEM-1 + CTX-M-15 + SHV-28): 1 µg/mL
- MIC (K. pneumoniae BER (TEM-1 + SHV-28)): 4 µg/mL
- MIC (K. pneumoniae BER, SHV-28 + TEM-1, non-carbapenemase producer, porin deficiency): 4 µg/mL
- MIC (K. pneumoniae BEY (OXA-48 + CTX-M-15 + TEM-1)): 0.38 µg/mL
- MIC (K. pneumoniae BEY, OXA-48 + TEM-1 + CTX-M-15): 0.38 µg/mL
- MIC (K. pneumoniae BIC (OXA-48)): 2 µg/mL
- MIC (K. pneumoniae BIC, OXA-48): 2 µg/mL
- MIC (K. pneumoniae BOU, OXA-48): 0.5 µg/mL
- MIC (K. pneumoniae CHA (OXA-48 + TEM-1)): 1 µg/mL
- MIC (K. pneumoniae CHA, OXA-48 + TEM-1): 1 µg/mL
- MIC (K. pneumoniae COL (KPC-2 + TEM-1 + SHV-1 + CTX-M-15)): 4 µg/mL
- MIC (K. pneumoniae COO (CTX-M-15 + SHV28)): > 32 µg/mL
- MIC (K. pneumoniae COO, CTX-M-15 + SHV-28, non-carbapenemase producer, porin deficiency): > 32 µg/mL
- MIC (K. pneumoniae DAL (OXA-48 + CTX-M-15 + TEM-1)): 2 µg/mL
- MIC (K. pneumoniae DAL, OXA-48 + TEM-1 + CTX-M-15): 2 µg/mL
- MIC (K. pneumoniae DIA, OXA-48 + TEM-1b + CTX-M-15 + SHV-11 + OXA-1): > 32 µg/mL
- MIC (K. pneumoniae DUW, OXA-48 + TEM-1 + CTX-M-15 + SHV-28): 32 µg/mL
- MIC (K. pneumoniae EGY (OXA-48 + CTX-M-15)): 3 µg/mL
- MIC (K. pneumoniae EGY, OXA-48 + CTX-M-15): 3 µg/mL
- MIC (K. pneumoniae ELK (OXA-48 + TEM-1 + CTX-M-15 + SHV-11)): 3 µg/mL
- MIC (K. pneumoniae ELK, OXA-48 + TEM-1 + CTX-M-15 + SHV-11): 3 µg/mL
- MIC (K. pneumoniae ENN, VIM-1+ SHV-5): 1.5 µg/mL
- MIC (K. pneumoniae FOS (CTX-M-15 + TEM-1 + SHV-11)): > 32 µg/mL
- MIC (K. pneumoniae FOS, CTX-M-15 + TEM-1 + SHV-11, non-carbapenemase producer, porin deficiency): > 32 µg/mL
- MIC (K. pneumoniae GES, KPC-2 + TEM-1 + SHV-11): 12 µg/mL
- MIC (K. pneumoniae HOL (OXA-181 + CTX-M-15)): 4 µg/mL
- MIC (K. pneumoniae HOL, OXA-181 + CTX-M-15): 4 µg/mL
- MIC (K. pneumoniae HPA, OXA-48 + TEM-1 + CTX-M-15 + OXA-1): > 32 µg/mL
- MIC (K. pneumoniae IND (NDM-1 + OXA-1 + CTX-M-15)): 8 µg/mL
- MIC (K. pneumoniae KAM, KPC-3 + TEM-1 + SHV-11): 12 µg/mL
- MIC (K. pneumoniae KDH (DHA-2)): 0.5 µg/mL
- MIC (K. pneumoniae KI2, NDM-1 + CTX-M-15 + OXA-1): 8 µg/mL
- MIC (K. pneumoniae KIE, NDM-1 + SHV-38 + CMY-16 + OXA-10): 2 µg/mL
- MIC (K. pneumoniae KPN (CTX-M-15)): 0.12 µg/mL
- MIC (K. pneumoniae KPN, CTX-M-15, non-carbapenemase producer): 0.012 µg/mL
- MIC (K. pneumoniae LEG (CTX-M-15 + TEM-1 + SHV-12)): > 32 µg/mL
- MIC (K. pneumoniae LEG, CTX-M-15 + TEM-1 + SHV-12, non-carbapenemase producer, porin deficiency): > 32 µg/mL
- MIC (K. pneumoniae LIB (OXA-48)): > 32 µg/mL
- MIC (K. pneumoniae LIB, OXA-48): 16 µg/mL
